{"source": "patent US5004756A", "about": "“Anti-cancer activity potentiator” (priority 1988, dated 1991)", "key": {"[1]": {"system": "V79/ADM", "test": "Anti-cancer activity potentiating action, colony formation, V79/ADM resistant cells (A-III)", "type": "cell-based, Chinese hamster", "settings": "Cricetulus griseus; V79/ADM; alone; Table 6; read-out: IC50, anti-cancer agent alone", "in_short": "(§1)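 Chinese hamster V79/S (400 cells) and ADM-resistant V79/ADM (600 cells) were preincubated 24 h in Eagle's MEM with 10% bovine serum, then given anti-cancer agents plus the malate of formula (I): 10 μg/ml for sensitive cells, 3, 5 or 10 μg/ml for resistant cells. After 9 days' incubation, IC50 (μg/ml) for colony formation was calculated.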"}, "[2]": {"system": "PLC/Col", "test": "Anti-cancer activity potentiating action, colony formation, PLC/Col resistant cells (A-III)", "type": "cell-based, human", "settings": "Homo sapiens; PLC/Col; alone; Table 7; read-out: IC50, anti-cancer agent alone", "protocol": "(§2) The anti-cancer activity potentiating action of the malate of formula (I) was examined using Chinese hamster cells (sensitive cell line V79/S and ADM-resistant cell line V79/ADM), human hepatoma cells (sensitive cell line PLC/S and colchicin-resistant cell line PLC/Col) and mouse leukemia cells (sensitive cell line L5178Y/S) and aclarubicin-resistant cell line L5178Y/ACR).\n(§3) Of these tumor cells, the sensitive cells (400 cells) and the resistant cells (600 cells) were each incubated in 10 ml of Eagle's MEM medium containing 10% bovine serum for 24 hours, and then each of the test drugs indicated in Table 6 was added. Thereafter, the incubation was carried out for 9 days. The concentration (IC50 : micrograms/ml) of the test drug required to inhibit 50% of the colony formation (proliferation) of the tumor cells was calculated.\n(§4) As anti-cancer agents, adriamycin (ADM) and peplomycin (PEP) were used in combination with the malate of formula (I) (5 micrograms/ml)."}, "[3]": {"test": "Acute toxicity test in mice, oral", "type": "in vivo, mouse", "settings": "oral, 2,000 mg/kg", "protocol": "Using mice, the malate of formula (I) obtained as above was tested for toxicity. […] Toxicity was neither noted."}, "[4]": {"system": "V79/S", "test": "Anti-cancer activity potentiating action, colony formation, V79/S parent cells (A-III)", "type": "cell-based, Chinese hamster", "settings": "Cricetulus griseus; V79/S; alone; Table 6; read-out: IC50, anti-cancer agent alone", "in_short": "as §1"}, "[5]": {"system": "PLC/Col", "test": "Colony formation (proliferation) inhibition, colchicin-resistant human hepatoma cells (A-I Part 1)", "type": "cell-based", "settings": "Homo sapiens, 216 h; PLC/Col; 9 days; Table 1; read-out: IC50", "protocol": "(§5) Sensitive cell line V79/S and ADM-resistant cell line V79/ADM of the Chinese hamster were used, and sensitive cell line PLC/S and cholchicin-resistant cell line PLC/Col, as human hepatoma cells.\n(§6) The sensitive cell lines (400 cells) or the resistant cell lines (600 cells) were each incubated for 24 hours in 10 ml of Eagle's MEM medium containing 10% bovine serum. Each of the drugs indicated in Table 1 below was dissolved in ethanol, and 50 microliters of the resulting solution was added to the medium. The incubation was further carried out for 9 days. The concentration of the drug which inhibits 50% of the colony formation (proliferation) of the tumor cells was calculated.\n(§7) V79/S and V79/ADM were tested by using all of the drugs described above, but PLC/S and PLC/Col were tested by using only the malate of formula (I), adriamycin and peplomycin.\n(§8) The concentrations (micrograms/ml) required to inhibit 50% of the proliferation of the tumor cells, expressed by IC50, are shown in Table 1."}, "[6]": {"system": "V79/S", "test": "Colony formation (proliferation) inhibition, sensitive Chinese hamster cells (A-I Part 1)", "type": "cell-based", "settings": "Cricetulus griseus, 216 h; V79/S; 9 days; Table 1; read-out: IC50", "in_short": "(§9)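 Cells seeded at 400 (sensitive) or 600 (resistant) per dish in Eagle's MEM with 10% bovine serum for 24 h; drugs added as ethanol solutions, then incubated a further 9 days. IC50 (micrograms/ml) is the concentration giving 50% inhibition of colony formation.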"}, "[7]": {"system": "V79/ADM", "test": "Colony formation (proliferation) inhibition, ADM-resistant Chinese hamster cells (A-I Part 1)", "type": "cell-based", "settings": "Cricetulus griseus, 216 h; V79/ADM; 9 days; Table 1; read-out: IC50", "in_short": "as §9"}, "[8]": {"system": "Meth-A", "test": "Tumor proliferation inhibiting activity, Meth-A (A-IV)", "type": "in vivo, BALB/c rats", "settings": "for Number of surviving animals: 16 days later; for T/C (tumor weight) / Tumor weight mean ± S.D.: day 16", "protocol": "Female BALB/c rats (7 weeks old), 8 per group, were used. Tumor cells (Meth-A) induced by methyl cholanthrene were transplanted intraperitoneally to the rats, and then the malate of formula (I) was administered intraperitoneally to the rats. The proliferation inhibiting activity of the malate was examined by comparing the weight of the tumor cells with that of the tumor cells in the non-treated control group.\nThe dose of the malate of formula (I) was 1.25, 2.5, 5.0, and 10.0 mg/kg/day. Mitomycin C (MMC) was administered as another anti-cancer agent. The weight of the tumor cells was measured, and the proliferation inhibiting activity was determined.\nThe weight (g) of the tumor with respect to that of the tumor in the control group (T/C, %) after 16 days from the transplantation of the tumor cells, and the number of surviving rats after 16 days are shown in Table 8."}, "[9]": {"system": "PLC/S", "test": "Colony formation (proliferation) inhibition, sensitive human hepatoma cells (A-I Part 1)", "type": "cell-based", "settings": "Homo sapiens, 216 h; PLC/S; 9 days; Table 1; read-out: IC50", "protocol": "as §5, §6, §7, §8"}, "[10]": {"system": "B16 melanoma cells", "test": "Life prolongation of BDF1 mice with B16 melanoma (A-II Part 1)", "type": "in vivo, mouse (male BDF1)", "settings": "5 mg/kg i.p., three times every 4 days", "protocol": "Three to eight male BDF1 mice having a body weight of 20±3 g were used, and B16 melanoma cells were selected as tumor cells. The melanoma cells were homogenized, and the homogenate was transplanted subcutaneously to the mice in an amount of 0.5 ml/mouse. After 7 days, the malate of formula (I) in accordance with this invention and an anti-cancer agent, neocartinostatin (NCS), were intraperitoneally administered either singly or in combination three times every 4 days in a dose of 5 mg/kg and 0.45 mg/kg for each time. The life prolonging rate of the mice was determined by the treated group/non-treated control group (T/C %)."}, "[11]": {"system": "PLC/S", "test": "Anti-cancer activity potentiating action, colony formation, PLC/S parent cells (A-III)", "type": "cell-based, human", "settings": "Homo sapiens; PLC/S; alone; Table 7; read-out: IC50, anti-cancer agent alone", "protocol": "as §2, §3, §4"}, "[12]": {"system": "clinically isolated human cancer cells (lung adenocarcinoma, lung squamous cell carcinoma, osteosarcoma, ovarian carcinoma)", "test": "Anti-tumor activity on clinically isolated human cancer cells, morphological changes (A-I Part 2)", "type": "cell-based", "settings": "3 or 30 μg/ml (3 μg/ml for 3 examples, 30 μg/ml for 5)", "description": "Lung adenocarcinoma, lung squamous cell carcinoma, osteosarcoma and ovarian carcinoma were selected as clinically isolated human cancer cells, and the anti-tumor activities of various drugs were examined. Specifically, various tumor tissues were individually cut to thin pieces by a razor, and by washing in saline by using a 1 mm mesh, the connective tissues were removed. The resulting solution was centrifuged at 1000 rpm for 1 minute to remove necrotizing substances. Washing with saline gave tumor cells.\nThey were incubated at 37° for 4 to 8 hours. Thereafter, pumping was carried out to disperse the tissue pieces. Then, centrifugation at 1000 rpm for 5 minutes, cell coating and Giemsa staining were performed. The anti-tumor activity of each drug was examined on the basis of observation of the morphological changes of the tumor cells under a microscope.\nThe experiment was conducted on two examples of each tumor cells (total 8 examples)."}, "[13]": {"settings": "1.25 mg/kg/day i.p., days 1, 3, 5"}, "[14]": {"settings": "2.5 mg/kg/day i.p., days 1, 3, 5"}}, "data": [{"smiles": "COc1ccc(CNCCN(CC=C(C)CCC=C(C)CCC=C(C)CCC=C(C)CCC=C(C)CCC=C(C)CCC=C(C)CCC=C(C)CCC=C(C)C)Cc2ccc(OC)c(OC)c2)cc1OC", "note": "[Compound (I), N-solanesyl-N,N'-bis(3,4-dimethoxybenzyl)ethylenediamine malate]", "values": [{"measurement": "IC50", "setting": "[1]", "value": 3, "unit": "µg/mL"}, {"measurement": "IC50", "setting": "[2]", "value": 1.7, "unit": "µg/mL"}, {"measurement": "Acute toxicity, abnormality in mice", "setting": "[3]", "value": "no abnormality was found"}, {"measurement": "IC50", "setting": "[4]", "value": 11.5, "unit": "µg/mL"}, {"measurement": "IC50", "setting": "[5]", "value": 1.7, "unit": "µg/mL"}, {"measurement": "IC50", "setting": "[6]", "value": 11.5, "unit": "µg/mL"}, {"measurement": "IC50", "setting": "[7]", "value": 3, "unit": "µg/mL"}, {"measurement": "Number of surviving animals", "setting": "[8]; [13]", "value": "8/8"}, {"measurement": "T/C (tumor weight)", "setting": "[8]; [13]", "value": 75, "unit": "%"}, {"measurement": "Tumor weight mean ± S.D.", "setting": "[8]; [13]", "value": "1.255 ± 0.533", "unit": "g"}, {"measurement": "Number of surviving animals", "setting": "[8]; [14]", "value": "8/8"}, {"measurement": "T/C (tumor weight)", "setting": "[8]; [14]", "value": 79, "unit": "%"}, {"measurement": "Tumor weight mean ± S.D.", "setting": "[8]; [14]", "value": "1.327 ± 0.350", "unit": "g"}, {"measurement": "Number of surviving animals", "setting": "[8]; 5.0 mg/kg/day i.p., day 1", "value": "8/8"}, {"measurement": "T/C (tumor weight)", "setting": "[8]; 5.0 mg/kg/day i.p., day 1", "value": 83, "unit": "%"}, {"measurement": "Tumor weight mean ± S.D.", "setting": "[8]; 5.0 mg/kg/day i.p., day 1", "value": "1.389 ± 0.644", "unit": "g"}, {"measurement": "Number of surviving animals", "setting": "[8]; 10.0 mg/kg/day i.p., day 1", "value": "8/8"}, {"measurement": "T/C (tumor weight)", "setting": "[8]; 10.0 mg/kg/day i.p., day 1", "value": 65, "unit": "%"}, {"measurement": "Tumor weight mean ± S.D.", "setting": "[8]; 10.0 mg/kg/day i.p., day 1", "value": "1.091 ± 0.659", "unit": "g"}, {"measurement": "IC50", "setting": "[9]", "value": 6.8, "unit": "µg/mL"}, {"measurement": "T/C (life prolonging rate at M.S.T.)", "setting": "[10]", "value": 165, "unit": "%"}, {"measurement": "IC50", "setting": "[11]", "value": 6.8, "unit": "µg/mL"}, {"measurement": "Efficacy ratio (rated significant by Fisher's test)", "setting": "[12]", "value": "5/8"}]}]}
